Assay results taken from patent US12435091B2, “RNA-binding protein multimerization inhibitors and methods of use thereof” (THE UAB RESEARCH FOUNDATION, priority 2020, dated 2025).
“And” between values parts separate entries of the source, which are not always exact repeats. Equal values may be shown once. Read-outs that look alike come from different tables or passages of the source.

Assays:
[1] = in vivo pharmacokinetic study in mice by ip administration; design: species or system C57Bl/6 mice; conditions: for concentration at 0.167 h / concentration at 0.5 h / Kp at 0.167 h / Kp at 0.5 h / Kp at 1 h / AUC(0-inf) / AUC(0-t) / Cmax / Tmax / MRT inf / half-life / Brain concentration / Plasma concentration / Ratio (Brain/Plasma) / AUCExtrap—obs: mouse; for concentration at 0.167 h / concentration at 0.5 h / Kp at 0.167 h / Kp at 0.5 h / Kp at 1 h / Brain concentration / Plasma concentration / Ratio (Brain/Plasma): 10 mg/kg IP; for AUC(0-inf) / AUC(0-t) / Cmax / Tmax / MRT inf / half-life: C57Bl/6; for MRT inf: read-out: MRTInf_obs
Experimental: The in vivo PK study for SRI-42127 was performed by Pharmaron (Beijing, China); pharmacokinetics were evaluated in the C57Bl/6 mice. […]

[2] = test system: Primary human neuronal cells; experiment: cytotoxicity in primary human neurons (morphology, cell number, metabolism, cleaved caspase-3); type: cell-based
Source text: PrestoBlue cell viability reagent (ThermoFisher Scientific; Waltham, MA) was used for cell viability assays. The inhibitory dose-response data were normalized to the control (treatment with vehicle); the inhibitory dose-response curves, which were fitted by using Boltzmann equation, and the corresponding IC50s were generated by using OriginPro software (OriginLab Corporation, CA).
At the end of experiments, neurons and astrocytes were rinsed briefly with PBS and fixed by using 4% paraformaldehyde, pH 7.4 for 13 minutes at room temperature. Triton X-100 (0.3%) in PBST buffer (i.e., PBS with 0.1% Tween 20) was used for cell permeabilization for 30 minutes at room temperature. Cells were rinsed with PBST buffer 3 times for 10 minutes after fixation. Blocking buffer (3% BSA, 22.52 mg/ml glycine in PBST) was used to block unspecific antibody binding for 30 minutes at room temperature. Primary cleaved caspase 3 antibody (Cell Signaling Technology; Danvers, MA) at 1:200 dilution in PBST buffer with 1% BSA was utilized overnight at 4° C. for cleaved caspase 3 staining. The next day, cells were rinsed four times for 10 minutes with PBST buffer and then were incubated with secondary antibody (Alexa Fluor 594, goat anti-rabbit IgG, Invitrogen (Carlsbad, CA), 1:2000/5000 dilution) in PBST buffer with 1% BSA for 1 hour at room temperature in the dark. Next, cells were rinsed with PBST buffer 4 times for 10 minutes in the dark. Cell nucleus were stained with DAPI (4′,6-diamidino-2-phenylindole). Cell images were obtained with EVOS Fl (Life Technologies; Eugene, OR) imaging system.
The cellular metabolism declined by about 44% after treatment with SRI-42127, 25 uM for 48 hours as shown by FIG. 5E. […] Therefore, compound SRI-42127 inhibited glioma cell growth and had low neuronal and astrocyte cytotoxicity at concentrations below 15 uM.

HMGB1 = experiment: nuclear/cytoplasmic localization by confocal microscopy in LPS-activated primary microglia; type: cell-based, mouse; conditions: 0.5 μM for 24 hours
Experimental: To assess the specificity of SRI-42127 for blocking HuR cytoplasmic translocation, the effect of SRI-42127 on cytoplasmic translocation of HMGB1 was assessed. Like HuR, HMGB1 is nuclear predominant and translocates with microglial activation. Primary microglia were treated with LPS and 0.5 μM of SRI-42127 for 24 hours. Cells were fixed and immunostained for HMGB1 and IBA1. Nuclear/cytoplasmic localization was assessed by confocal microscopy. Total HMGB1 immunofluorescence in each cell (boundaries defined by IBA1 staining), was quantified using Fiji software. The nuclear portion was determined by quantifying the amount of HMGB1 fluorescence that overlapped with DAPI fluorescence. HuR translocation was studied in parallel with the same methodology.
In unactivated microglia (LPS-), both HuR and HMGB1 were nuclear predominant with little to no merged signal with cytoplasmic IBA1 as depicted in FIG. 11, Panel C.

[3] = test system: inflammatory cytokines, chemokines and other mediators in primary microglial cells; experiment: qPCR of inflammatory mediator mRNAs in LPS-activated primary microglia; type: cell-based, mouse; conditions: 24 hours
Experimental: Cultured primary microglial cells isolated from neonatal mouse brain were treated with LPS to achieve activation. Cells were then treated with varying doses of SRI-42127 or vehicle for 24 hours. Total RNA was harvested from the cells and various mRNAs were quantified by qPCR as depicted in FIG. 12. Consistent with microglial activation, there were large inductions of inflammatory cytokines, chemokines and other mediators including IL-1β, IL-6, TNF-α, iNOS, IL-10, CXCL1, CXCL2, CXCL10, CCL2, CCL3, and CCL4. These inductions were as high as ˜3500-fold for IL-6.
(§1) Major chemokines CXCL1, CXCL2 and CCL3 were suppressed by more than 2-fold. There was a mixed effect on markers of M2-like markers, with TGF-β1 and YM1 increasing and IL-10 decreasing. As these inflammatory factors were secreted, they were quantified by ELISA in culture medium. The greatest effect was with IL-6 which was suppressed at a lower dose of SRI-42127 (1.7-fold at 0.1 μM) and nearly 10-fold at 1.0 μM. IL-1β and TNF-α were suppressed by 5-fold at 1.0 μM.

[4] = test system: secreted inflammatory factors of microglia; experiment: ELISA of secreted factors in culture medium of LPS-activated microglia; type: cell-based, mouse
Experimental: as §1

HuR = HuR localization (N/C ratio) in LPS-stimulated cultured astrocytes; type: cell-based; conditions: 0.5 μM for 24 hours
Experimental: First, the effect of SRI-42127 on HuR localization in astrocytes was studied. […] Quantification of the N/C HuR ratio using methodology described with microglia was 2.0. With LPS stimulation, there was translocation of HuR to the cytoplasm consistent with astrocyte activation and the N/C ratio decreased to 0.4 (P<0.001). When cells were treated with SRI-42127, this ratio was reversed back to pre-stimulation value (1.9). These findings indicate that SRI-42127 blocks cytoplasmic translocation of HuR in activated astrocytes.

[5] = 0.167 h, individual animals, 10 mg/kg
[6] = 0.5 h, individual animals, 10 mg/kg
[7] = 1 h, individual animals, 10 mg/kg

With `CN(c1ccc2ncc(-c3ccc4cn[nH]c4c3)n2n1)C1CCOCC1` [Compound 19] the concentration at 0.167 h ([1]; C57Bl/6, mouse, brain, ip, 10 mg/kg, 0.167 h, individual animals, read-out: Brain concentration) was 1220 ng/g, the concentration at 0.5 h ([1]; C57Bl/6, mouse, brain, ip, 10 mg/kg, 0.5 h, individual animals, read-out: Brain concentration) was 420 ng/g and the Kp ([1]; C57Bl/6, mouse, brain/plasma, ip, 10 mg/kg, mice, ip administration, all time points, read-out: brain/plasma concentration ratio) was ~0.4. The Kp at 0.167 h ([1]; C57Bl/6, mouse, brain/plasma, ip, 10 mg/kg, 0.167 h, individual animals, read-out: Ratio (Brain/Plasma)) was 0.419, the Kp at 0.167 h ([1]; C57Bl/6, mouse, brain/plasma, ip, 10 mg/kg, 0.167 h, read-out: Ratio (Brain/Plasma) Mean) was 0.399 and the Kp at 0.5 h ([1]; C57Bl/6, mouse, brain/plasma, ip, 10 mg/kg, 0.5 h, individual animals, read-out: Ratio (Brain/Plasma)) was 0.536. It also gave a Kp at 0.5 h ([1]; C57Bl/6, mouse, brain/plasma, ip, 10 mg/kg, 0.5 h, read-out: Ratio (Brain/Plasma) Mean) of 0.455, a Kp at 1 h ([1]; C57Bl/6, mouse, brain/plasma, ip, 10 mg/kg, 1 h, individual animals, read-out: Ratio (Brain/Plasma)) of 0.408 and a Kp at 1 h ([1]; C57Bl/6, mouse, brain/plasma, ip, 10 mg/kg, 1 h, read-out: Ratio (Brain/Plasma) Mean) of 0.398. For the same compound, the concentration at 0.167 h ([1]; C57Bl/6, mouse, plasma, ip, 10 mg/kg, 0.167 h, individual animals, read-out: Plasma concentration) was 2910 ng/mL, the concentration at 0.5 h ([1]; C57Bl/6, mouse, plasma, ip, 10 mg/kg, 0.5 h, individual animals, read-out: Plasma concentration) was 782 ng/mL and the AUC(0-inf) ([1]; 10 mg/kg ip, Brain) was 550 ng·h/mL. The AUC(0-t) ([1]; 10 mg/kg ip, Brain) was 541 ng·h/mL, the Cmax ([1]; 10 mg/kg ip, Brain) was 1370 ng/mL and the Tmax ([1]; 10 mg/kg ip, Brain) was 10 min. For the same compound, the MRT inf ([1]; 10 mg/kg ip, Brain) was 18.8 min, the half-life ([1]; 10 mg/kg ip, Brain, read-out: T½ (converted)) was 9.6 min and the AUC(0-inf) ([1]; 10 mg/kg ip, Plasma) was 1340 ng·h/mL. For the same compound, the AUC(0-t) ([1]; 10 mg/kg ip, Plasma) was 1320 ng·h/mL, the Cmax ([1]; 10 mg/kg ip, Plasma) was 3460 ng/mL and the Tmax ([1]; 10 mg/kg ip, Plasma) was 10 min. It also gave an MRT inf ([1]; 10 mg/kg ip, Plasma) of 18.4 min, a half-life ([1]; 10 mg/kg ip, Plasma, read-out: T½ (converted)) of 9.6 min and a half-life ([1]; dose of 10 mg/kg by IP, read-out: half-life (converted)) of 9.6 min. For the same compound, the brain/plasma concentration ratio ([1]; mice, ip administration, all time points, listed as SRI-42127) was 0.42±0.05, the Brain concentration [1, 5] was 1375 ng/g and 1520 ng/g and the Plasma concentration [1, 5] was 3450 ng/mL and 4010 ng/mL. The “Ratio (Brain/Plasma)” value [1, 5] was 0.379, the Brain concentration [1, 6] was 545 ng/g and 391 ng/g and the Plasma concentration [1, 6] was 1430 ng/mL and 870 ng/mL. The “Ratio (Brain/Plasma)” value [1, 6] was 0.381 and 0.449, the Brain concentration [1, 7] was 53.0 ng/g and 43.9 ng/g and 19.7 ng/g and the Plasma concentration [1, 7] was 130 ng/mL and 104 ng/mL and 53.9 ng/mL. The “Ratio (Brain/Plasma)” value [1, 7] was 0.422 and 0.365, the “AUCExtrap—obs” value ([1]; 10 mg/kg ip, Brain) was 1.63% and the “AUCExtrap—obs” value ([1]; 10 mg/kg ip, Plasma) was 1.65%. The “decline of cellular metabolism” value ([2]; 25 uM for 48 hours) was “about 44%”, the “cleaved caspase-3 immunostaining” value ([2]; neurons, up to 15 uM, 48 hours) was “no significant alterations” and the “morphological changes of neurons” value ([2]; up to 15 uM for 48 hours) was “no morphological changes”. For the same compound, the “neuron cell numbers and cell sprouting” value ([2]; up to 15 uM for 48 hours, listed as SRI-42127) was “remained unchanged”, the “HMGB1 N/C ratio” value (HMGB1) was “no effect” and the “suppression of CCL3 mRNA” value [3] was “more than 2 fold”. For the same compound, the “suppression of CXCL1 mRNA” value [3] was “more than 2 fold”, the “suppression of CXCL2 mRNA” value [3] was “more than 2 fold” and the “suppression of IL-1β mRNA” value [3] was 5.9 fold. For the same compound, the “suppression of IL-6 mRNA” value [3] was 6.8 fold, the “suppression of TNF-α mRNA” value [3] was 1.6 fold and the “suppression of iNOS mRNA” value [3] was 8 fold. The “suppression of secreted IL-6” value ([4]; 0.1 μM) was 1.7 fold, the “suppression of secreted IL-1β” value ([4]; 1.0 μM) was 5 fold and the “suppression of secreted IL-6” value ([4]; 1.0 μM) was ~10 fold. For the same compound, the “suppression of secreted TNF-α” value ([4]; 1.0 μM) was 5 fold and the “N/C HuR ratio” value (HuR) was 1.9.
